According to patent US9175030B2, “Derivatives of avicin D and methods of making and using thereof” (priority 2012, dated 2015):

Legend:
Nrf2 = Nrf2 activation, ARE-driven luciferase in Hep G2 cells; format: cell-based, human; conditions: Hep G2 cells transfected with hARE-luc, luciferase activity
Method: Activation of Nrf2 was assessed by measuring the antioxidant response element (ARE)-mediated gene expression as described previously by Haridas et al., 2004, which is incorporated herein by reference. Briefly, ARE is a cis-acting regulatory sequence identified in the promoter region of several genes encoding phase 2 detoxification enzymes, that binds to Nrf2. Hep G2 (human hepatocarcinoma) cells were transfected with a human ARE-driven luciferase (luc) containing plasmid, hARE-luc. Following exposure to avicin D/compound 8, the luciferase activity induced in these cells was measured using a dual-luciferase assay kit (Promega) according to the manufacturer's protocol.

U266 = assay: MTT growth inhibition, U266; format: cell-based; conditions: U266 cells, 72 hrs
Method: (§1) The growth inhibitory effects of avicin D and oxetane derivative were measured using the MTT [3-(4,5-dimethylthiazol-2-yl)-2,5-diphenyl tetrazolium bromide] reduction assay as described in Haridas et al. (2001). Cells were cultured with varying concentrations of avicin D or oxetane in 96-well plates for 72 hrs at 37° C. At the end of 72 hrs, cells were stained with MTT for 2 hrs and then incubated with lysis buffer (20% SDS in 50% N,N-dimethylformamide) for another 6 hrs. Optical density at 570 nm was used as a measure of cell viability.
(§2) The cell lines 769P, A498, CAKI-1, and CAKI-2 are derived from primary human renal-cell cancers (RCC). A549 is a human lung adenocarcinoma epithelial cell line. B16F10 is a mouse melanoma cell line. BT474, BT 474 M1, BT549, MCF7, […], and ZR751 are breast cancer cell lines. CCRF-CEM, Jurkat, and MOLT4 are leukemia cell lines. HELA is cell line derived from cervical caner. HepG2 is a human hepatocellular liver carcinoma cell line. JeKo-1 is a mantle cell lymphoma (MCL) cell line. LnCAP is a cell line was established from a metastatic lesion of human prostatic adenocarcinoma. MM.1 and RPMI-8226 are human multiple myeloma cell lines. OVCAR3 and SKOV3 are ovarian cancer cell lines. Panc-1 is a pancreatic cancer cell line. PC3 is a prostate cancer cell line. Raji is a Burkitt's lymphoma cell line. RL is a non-Hodgkin's lymphoma cell line. […]

chemotaxis = assay: Inhibition of chemotaxis; format: cell-based; conditions: preliminary data
MCF7 = assay: MTT growth inhibition, MCF7; format: cell-based; conditions: MCF7 cells, 72 hrs
Method: as §1, §2

[1] = tested on: Jurkat (human T-cell leukemia) cells; assay: Reduction in cell viability, Jurkat cells (Table 6); format: cell-based; conditions: 50% reduction in cell viability
From the text: The IC50 values indicate the concentrations of avicin D/compound 8 required to induce a 50% reduction in call viability. These studies were done in Jurkat (human T-cell leukemia) cells and have been described previously in Haridas et al., 2001, which is incorporated herein by reference.

CAKI-1 = assay: MTT growth inhibition, CAKI-1; format: cell-based, human; conditions: CAKI-1 cells, 72 hrs
Method: as §1, §2

SKOV3 = assay: MTT growth inhibition, SKOV3; format: cell-based; conditions: SKOV3 cells, 72 hrs
Method: as §1, §2

RL = assay: MTT growth inhibition, RL; format: cell-based; conditions: RL cells, 72 hrs
Method: as §1, §2

769P = assay: MTT growth inhibition, 769P; format: cell-based, human; conditions: 769P cells, 72 hrs
Method: as §1, §2

B16F10 = assay: MTT growth inhibition, B16F10; format: cell-based, mouse; conditions: B16F10 cells, 72 hrs
Method: as §1, §2

Raji = assay: MTT growth inhibition, Raji; format: cell-based; conditions: Raji cells, 72 hrs
Method: as §1, §2

U2OS = assay: MTT growth inhibition, U2OS; format: cell-based, human; conditions: U2OS cells, 72 hrs
Method: as §1, §2

human preadipocytes = conditions: cited from earlier work
MOLT4 = assay: MTT growth inhibition, MOLT4; format: cell-based; conditions: MOLT4 cells, 72 hrs
Method: as §1, §2

PC3 = assay: MTT growth inhibition, PC3; format: cell-based; conditions: PC3 cells, 72 hrs
Method: as §1, §2

BT474 = assay: MTT growth inhibition, BT474; format: cell-based; conditions: BT474 cells, 72 hrs
Method: as §1, §2

[2] = tested on: p(IL6-κB)350hu.IL6P-Luc in HEK 293T cells; assay: TNF-induced NF-κB luciferase reporter in HEK 293T cells with and without GR (FIG. 3); format: cell-based
From the text: However, TNF-induced activation of p(IL6-κB)350hu.IL6P-Luc was inhibited by both avicin D and Dex in HEK 293T cells transfected with GR (FIG. 3). […] This observation supports the notion that avicins are not able to induce GR transactivation.

CCRF-CEM = assay: MTT growth inhibition, CCRF-CEM; format: cell-based; conditions: CCRF-CEM cells, 72 hrs
Method: as §1, §2

WSU-DLCL2 = assay: MTT growth inhibition, WSU-DLCL2; format: cell-based, human; conditions: WSU-DLCL2 cells, 72 hrs
Method: as §1, §2

RPMI 8226 = assay: MTT growth inhibition, RPMI 8226; format: cell-based, human; conditions: RPMI 8226 cells, 72 hrs
Method: as §1, §2

A549 = assay: MTT growth inhibition, A549; format: cell-based, human; conditions: A549 cells, 72 hrs
Method: as §1, §2

HepG2 = assay: MTT growth inhibition, HepG2; format: cell-based, human; conditions: HepG2 cells, 72 hrs
Method: as §1, §2

HS27 = assay: MTT growth inhibition, HS27; format: cell-based; conditions: HS27 human foreskin fibroblast cells, 72 hrs
Method: as §1, §2

[3] = tested on: PKA-mediated CREB activity; conditions: cited from earlier work
A498 = assay: MTT growth inhibition, A498; format: cell-based, human; conditions: A498 cells, 72 hrs
Method: as §1, §2

CAKI-2 = assay: MTT growth inhibition, CAKI-2; format: cell-based, human; conditions: CAKI-2 cells, 72 hrs
Method: as §1, §2

Jurkat = assay: MTT growth inhibition, Jurkat; format: cell-based, human; conditions: Jurkat cells, 72 hrs (Table 5)
Method: as §1, §2

GM0131 = assay: MTT growth inhibition, GM0131; format: cell-based; conditions: GM0131 wild type human fibroblast cells, 72 hrs
Method: as §1, §2

IC50 (U266): 300 nM
IC50 (MCF7): 15200 nM
IC50 [1]: 180 nM
IC50 (SKOV3): 1000 nM
IC50 (B16F10): 660 nM
IC50 (Raji): 1270 nM
IC50 (U2OS): 4400 nM
IC50 (MOLT4): 320 nM
IC50 (PC3): 440 nM
IC50 (BT474): 2800 nM
IC50 (CCRF-CEM): 5500 nM
IC50 (A549): 6900 nM
IC50 (HepG2): 440 nM
IC50 (Jurkat): 170 nM
Structure (SMILES): C=C[C@](C)(O)CC/C=C(\CO)C(=O)O[C@H]1[C@H](O)[C@@H](O)[C@H](O[C@@](C)(C=C)CC/C=C(\CO)C(=O)O[C@H]2C[C@]3(C(=O)O[C@@H]4O[C@H](CO)[C@@H](O)[C@H](O)[C@H]4O[C@@H]4O[C@@H](C)[C@H](O[C@@H]5O[C@@H](CO)[C@H](O)[C@H]5O)[C@@H](O[C@@H]5O[C@H](CO)[C@@H](O)[C@H](O)[C@H]5O)[C@H]4O)[C@H](O)C[C@]4(C)C(=CC[C@@H]5[C@@]6(C)CC[C@H](O[C@@H]7O[C@H](CO[C@@H]8O[C@H](C)[C@H](O)[C@H](O)[C@H]8O[C@@H]8OC[C@@H](O)[C@H](O)[C@H]8O)[C@@H](O)[C@H](O)[C@H]7NC(C)=O)C(C)(C)[C@@H]6CC[C@]54C)[C@@H]3CC2(C)C)O[C@@H]1C [Avicin D]
Fold Nrf2 activation (Nrf2): 2.10
inhibition of chemotaxis (chemotaxis): effective at inhibiting chemotaxis at picomolar and nanomolar concentrations
IC50 (CAKI-1): 1120 nM
IC50 (RL): 310 nM
IC50 (769P): 360 nM
differentiation of preadipocytes to mature adipocytes (human preadipocytes): inhibited the differentiation of human preadipocytes to mature adipocytes
intracellular triglyceride levels (human preadipocytes): reduced intracellular triglyceride levels
TNF-induced activation of p(IL6-κB)350hu.IL6P-Luc ([2]; HEK 293T cells transfected with GR): inhibited
luciferase activity ([2]; wild type HEK 293T cells (no GR)): neither avicin D nor dexamethasone had an effect
IC50 (WSU-DLCL2): 520 nM
IC50 (RPMI 8226): 300 nM
IC50 (HS27): 6100 nM
PKA-mediated CREB activity [3]: inhibited PKA-mediated CREB activity
IC50 (A498): 440 nM
IC50 (CAKI-2): 2060 nM
IC50 (GM0131): 30100 nM
